Laboratory results reported in ChEMBL document CHEMBL1201862, “PubChem BioAssay data set” (2004).
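Tested at 5 concentrations; 48 h exposure; 96-well plates; endpoints linearly interpolated, else capped at highest concentration. At the GI50, growth is halved.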 Activity calls are given as the source filed them. Cut-off read from the data, not from the text of the source: active = GI50 up to about 1.1 µM and inactive = higher.

Key:
Assay in all cases: NCI-60 cell line screen, 48 h
M14 = tested on: M14
HT-29 = tested on: HT-29
NCI-H522 = tested on: NCI-H522
HCC 2998 = tested on: HCC 2998
U-251 = tested on: U-251
RXF 393 = tested on: RXF 393
SK-MEL-2 = tested on: SK-MEL-2
NCI-H460 = tested on: NCI-H460
HCT-15 = tested on: HCT-15
LOX IMVI = tested on: LOX IMVI
SF-268 = tested on: SF-268
UACC-62 = tested on: UACC-62
DMS-114 = tested on: DMS-114
SNB-19 = tested on: SNB-19
SF-539 = tested on: SF-539
CCRF-CEM = tested on: CCRF-CEM
MOLT-4 = tested on: MOLT-4
M19-MEL = tested on: M19-MEL
MCF7 = tested on: MCF7
Hs-578T = tested on: Hs-578T

Structure (SMILES) | GI50 (M14) | GI50 (HT-29) | GI50 (NCI-H522) | GI50 (HCC 2998) | GI50 (U-251) | GI50 (RXF 393) | GI50 (SK-MEL-2) | GI50 (NCI-H460) | GI50 (HCT-15) [µM] | GI50 (LOX IMVI) | GI50 (SF-268) | GI50 (UACC-62) | GI50 (DMS-114) | GI50 (SNB-19) | GI50 (SF-539) | GI50 (CCRF-CEM) | GI50 (MOLT-4) | GI50 (M19-MEL) | GI50 (MCF7) | GI50 (Hs-578T)
Cn1c(=O)nc2n(-c3cccc(Cl)c3)c3ccccc3nc-2c1=O | 7.93 µM (inactive) | 4.53 µM (inactive) | 15.1 µM (inactive) | 10.7 µM (inactive) | 15.3 µM (inactive) | 21.5 µM (inactive) | 17.1 µM (inactive) | 6.4 µM (inactive) | 13 | 18.7 µM (inactive) | 18.2 µM (inactive) | 2.68 µM (inactive) | 6.34 µM (inactive) | > 10 µM (inactive) | 16 µM (inactive) | 19 µM (inactive) | 18.5 µM (inactive) | – | – | –
O=C(O[C@H]1[C@@H]2C=CO[C@@H](OC3OC(CO)C(O)C(O)C3O)[C@@H]2[C@@]2(CO)O[C@@H]12)c1ccc(O)c(O)c1 (some centres not stated) | > 100 µM (inactive) | > 100 µM (inactive) | > 100 µM (inactive) | > 100 µM (inactive) | > 100 µM (inactive) | > 100 µM (inactive) | > 100 µM (inactive) | > 100 µM (inactive) | – | > 100 µM (inactive) | > 100 µM (inactive) | > 100 µM (inactive) | – | > 100 µM (inactive) | > 100 µM (inactive) | > 100 µM (inactive) | > 100 µM (inactive) | > 100 µM (inactive) | – | –
O=C1CCCC/C1=C/C=C/c1ccccc1 | 58.9 µM (inactive) | 49.3 µM (inactive) | 30.7 µM (inactive) | > 100 µM (inactive) | 83 µM (inactive) | 47.4 µM (inactive) | > 100 µM (inactive) | > 100 µM (inactive) | – | 48.9 µM (inactive) | 59.7 µM (inactive) | 52.1 µM (inactive) | – | > 100 µM (inactive) | > 100 µM (inactive) | 34.6 µM (inactive) | 26.9 µM (inactive) | 50.9 µM (inactive) | – | –
C[N+](C)(C)CC1CCC(C[N+](C)(C)C)C1=NO (configuration not stated) | > 100 µM (inactive) | > 100 µM (inactive) | > 100 µM (inactive) | – | > 100 µM (inactive) | > 100 µM (inactive) | > 100 µM (inactive) | – | > 100 | > 100 µM (inactive) | > 100 µM (inactive) | > 100 µM (inactive) | – | > 100 µM (inactive) | > 100 µM (inactive) | > 100 µM (inactive) | > 100 µM (inactive) | > 100 µM (inactive) | – | –
NC(Cc1ccccc1)C(=O)OCN1C(=O)C2C3C=CC(C2C1=O)C1C2C(=O)N(COC(=O)C(N)Cc4ccccc4)C(=O)C2C31 (configuration not stated) | 20.4 µM (inactive) | 33.2 µM (inactive) | – | – | 20.7 µM (inactive) | 22.5 µM (inactive) | – | 14.4 µM (inactive) | 17.8 | 21.4 µM (inactive) | 25.9 µM (inactive) | 23 µM (inactive) | 20.9 µM (inactive) | 50.1 µM (inactive) | 22.2 µM (inactive) | 21.1 µM (inactive) | – | – | – | –
CC1=C(/C(C)=N/NC(=O)c2ccccc2O)C(C)C(/C(C)=N/NC(=O)c2ccccc2O)=C(C)N1 | 30.2 µM (inactive) | 42.3 µM (inactive) | 17.5 µM (inactive) | – | 28.7 µM (inactive) | 4.73 µM (inactive) | – | 18 µM (inactive) | 22.8 | 18.3 µM (inactive) | 25.6 µM (inactive) | 6.5 µM (inactive) | 16.2 µM (inactive) | 30.5 µM (inactive) | 20 µM (inactive) | – | 5.09 µM (inactive) | 18.7 µM (inactive) | – | –
COc1cc(/C=C/C=C2\CCC/C(=C\C=C\c3ccc(O)c(OC)c3)C2=O)ccc1O | 18.2 µM (inactive) | 6.04 µM (inactive) | 0.895 µM (active) | 13.2 µM (inactive) | 17.7 µM (inactive) | 10.8 µM (inactive) | 21.2 µM (inactive) | 13.8 µM (inactive) | 13.6 | 7.91 µM (inactive) | 5.53 µM (inactive) | 7.55 µM (inactive) | – | 31.7 µM (inactive) | 17.5 µM (inactive) | 0.991 µM (active) | 1.01 µM (active) | – | 5.24 µM (inactive) | 19.5 µM (inactive)
CCC(=O)OCc1ccc2oc(=O)c(C(=O)Oc3cncc(Cl)c3)cc2c1 | > 100 µM (inactive) | 76 µM (inactive) | 29.2 µM (inactive) | 35.6 µM (inactive) | > 100 µM (inactive) | 37.4 µM (inactive) | > 100 µM (inactive) | > 100 µM (inactive) | 44 | > 100 µM (inactive) | > 100 µM (inactive) | 52.1 µM (inactive) | – | > 100 µM (inactive) | > 100 µM (inactive) | < 0.01 µM (active) | 30 µM (inactive) | – | 76.4 µM (inactive) | > 100 µM (inactive)
COc1ccc(C(=O)C(CC2C(=O)CC(C)(C)C(C(=O)C(=O)Nc3c(C)cccc3C)C2=O)c2ccc(OC)cc2)cc1 (configuration not stated) | > 100 µM (inactive) | > 100 µM (inactive) | > 100 µM (inactive) | > 100 µM (inactive) | > 100 µM (inactive) | > 100 µM (inactive) | > 100 µM (inactive) | > 100 µM (inactive) | > 100 | > 100 µM (inactive) | > 100 µM (inactive) | > 100 µM (inactive) | – | > 100 µM (inactive) | > 100 µM (inactive) | > 100 µM (inactive) | > 100 µM (inactive) | – | > 100 µM (inactive) | > 100 µM (inactive)
CCCCCC(C)C[C@H]1CO[C@H](c2ccc[nH]2)N[C@H]1C(=O)OC (some centres not stated) | > 100 µM (inactive) | > 100 µM (inactive) | > 100 µM (inactive) | > 100 µM (inactive) | > 100 µM (inactive) | > 100 µM (inactive) | > 100 µM (inactive) | > 100 µM (inactive) | > 100 | > 100 µM (inactive) | > 100 µM (inactive) | > 100 µM (inactive) | – | > 100 µM (inactive) | > 100 µM (inactive) | > 100 µM (inactive) | > 100 µM (inactive) | – | > 100 µM (inactive) | > 100 µM (inactive)
CC1C(c2ccccc2O)c2cc3c(cc2OC1N1CCOCC1)OCO3 (configuration not stated) | 35.4 µM (inactive) | 26.9 µM (inactive) | 12.4 µM (inactive) | 25 µM (inactive) | 26.5 µM (inactive) | 22.6 µM (inactive) | 29 µM (inactive) | 20.6 µM (inactive) | 31 | 18 µM (inactive) | 43 µM (inactive) | 26.2 µM (inactive) | – | 40.7 µM (inactive) | 20.5 µM (inactive) | 20.7 µM (inactive) | 25.8 µM (inactive) | – | 33 µM (inactive) | 19.4 µM (inactive)
CCOC(=O)c1ccc(/N=C\c2ccc(N(CCC#N)CCC#N)cc2)cc1 | 36.5 µM (inactive) | > 100 µM (inactive) | 49.5 µM (inactive) | – | – | > 100 µM (inactive) | > 100 µM (inactive) | > 100 µM (inactive) | 21.4 | 44.2 µM (inactive) | 84.7 µM (inactive) | 21.5 µM (inactive) | 70 µM (inactive) | > 100 µM (inactive) | 45.5 µM (inactive) | 46.9 µM (inactive) | 32.4 µM (inactive) | 62.8 µM (inactive) | – | –
CC(=O)NNc1nc(C)c(C(=O)/C=C/c2ccc(N(C)C)cc2)s1 | – | > 100 µM (inactive) | > 100 µM (inactive) | > 100 µM (inactive) | > 100 µM (inactive) | 88.9 µM (inactive) | > 100 µM (inactive) | > 100 µM (inactive) | > 100 | > 100 µM (inactive) | > 100 µM (inactive) | > 100 µM (inactive) | > 100 µM (inactive) | – | > 100 µM (inactive) | > 100 µM (inactive) | > 100 µM (inactive) | – | – | –
Cc1ccc2c(c1C)C(=O)/C(=C/c1cccc(C)c1C(=O)O)C2 | 63.2 µM (inactive) | 85.5 µM (inactive) | 40.1 µM (inactive) | 51.5 µM (inactive) | 79.1 µM (inactive) | 63.1 µM (inactive) | > 83.6 µM (inactive) | 65 µM (inactive) | 51.3 | 44.1 µM (inactive) | > 91.4 µM (inactive) | 56 µM (inactive) | – | > 100 µM (inactive) | 69.2 µM (inactive) | 50.7 µM (inactive) | 53.2 µM (inactive) | – | 25.9 µM (inactive) | > 86.1 µM (inactive)
CN(C)CCc1c2c(nc3ccccc13)C(=O)c1cccnc1C2=O | 0.102 µM (active) | 1.55 µM (inactive) | 0.175 µM (active) | 1.35 µM (inactive) | 0.176 µM (active) | 0.172 µM (active) | 1.17 µM (inactive) | 0.0826 µM (active) | 0.0348 | < 0.0476 µM (active) | 0.238 µM (active) | 0.175 µM (active) | – | 0.652 µM (active) | 0.168 µM (active) | 0.682 µM (active) | 2.57 µM (inactive) | – | 0.122 µM (active) | 1.15 µM (inactive)
CN1C[C@@H]2CCCN2P1Oc1cccc2cccnc12 (some centres not stated) | 33.7 µM (inactive) | 33 µM (inactive) | 18.1 µM (inactive) | 47.3 µM (inactive) | 35.2 µM (inactive) | > 100 µM (inactive) | 50.7 µM (inactive) | 35.4 µM (inactive) | 16.6 | 97.5 µM (inactive) | 16 µM (inactive) | 39.3 µM (inactive) | – | > 100 µM (inactive) | 44.9 µM (inactive) | 2.41 µM (inactive) | 6.76 µM (inactive) | – | 12 µM (inactive) | 17.5 µM (inactive)
